A short description of data set [1]: Measurement of logP values by HPLC on reversed phase columns (EEC directive 79/831 Annex V.A8). It counts as physicochemical.
Another data set deals with Plasmopara viticola. Nature of the data set: Plasmopara test (grapevines)/protective. The conditions noted are these: protective, 100 ppm of active ingredient, evaluated 6 days after inoculation. It is filed as in vivo. Here is the method:
To test for protective activity, young plants are sprayed with the preparation of active compound at the stated rate of application. After the spray coating has dried on, the plants are inoculated with an aqueous spore suspension of Plasmopara viticola and then remain for 1 day in an incubation cabinet at approximately 20° C. and a relative atmospheric humidity of 100%. The plant is subsequently placed for 4 days in a greenhouse at approximately 21° C. and a relative atmospheric humidity of approximately 90%. The plants are then misted and placed for 1 day in an incubation cabinet.

A further data set relates to Phytophthora infestans. It counts as in vivo. As to conditions: tomato plants, preventive, 500 ppm of active ingredient, evaluated 7 days after inoculation.

Like-named read-outs stand apart in the source and are kept apart here. Some results are limits rather than exact numbers.

As for `CCCCCOC(=O)Nc1cccnc1CON=C(c1ccccc1)c1nnnn1C` [Example 2, pentyl {2-[({[(1-methyl-1H-tetrazol-5-yl)(phenyl)methylene]amino}oxy)methyl]pyridin-3-yl}carbamate], in data set [1] (HPLC, pH 2.7, 0.1% formic acid, reported in preparation examples, read-out: logP(HCOOH)), the chromatographic logP amounted to 3.53. Also, the efficacy with Plasmopara viticola and in the data set with Phytophthora infestans was no less than 70% each time.

Turning to `Cn1nnnc1C(=NOCc1ncccc1N1C(=O)c2ccccc2C1=O)c1ccccc1` [Example 13, 2-{2-[({[(1-methyl-1H-tetrazol-5-yl)(phenyl)methylene]amino}oxy)methyl]pyridin-3-yl}-1H-isoindole-1,3(2H)-dione], the chromatographic logP in data set [1] (pH 2.7) came to 2.63.

In the case of `Cn1nnnc1C(=NOCc1ncccc1N)c1ccccc1` [Example 14, 2-[({[(1-methyl-1H-tetrazol-5-yl)(phenyl)methylene]amino}oxy)methyl]pyridin-3-amine], the chromatographic logP in data set [1] (pH 2.7) came to 1.01.

The record behind these values is patent publication US20110021572A1, “FUNGICIDE HYDROXIMOYL-TETRAZOLE DERIVATIVES” (priority 2008, published 2011).
